Source: patent publication US6825348B2, “Antiviral compounds” (Academia Sinica, priority 2002, dated 2004)

Tests used:
PRPP synthetase = PRPP synthetase (UniProt P0A717); test: PRPP synthetase reaction, conversion to diphosphates and inhibition of AMP phosphorylation; type: biochemical; conditions: compound as substrate of PRPP synthetase
Method: Enzymatic Conversion of Acyclic Nucleoside Phosphonates and Nucleotide 5′-Monophosphate Analog to Their Antivirally Active Diphosphates (Triphosphate Equivalents). Substrate affinities of acyclic nucleoside phosphonates 4, 20, 21, and dinucleotide analog 24 for PRPP synthetase as well as their inhibitory effect against the enzyme were evaluated according to the established procedures. See, e.g., Balzarini et al. (1991) J. Biol. Chem. 266: 8686-8689 and references cited therein. The assays were then terminated after 4 h by the addition of MeOH. HPLC on an anion-exchange Partisphere column was used to analyze the formation of […] 21pp, PMEApp, 4pp, 20pp, and 24pp.

[1] = system: herpes simplex type 2 virus (HSV-2) (G); test: Inhibition of HSV-2 cytopathogenicity in Vero cell culture; type: cell-based; conditions: 50% inhibition of cytopathogenicity, for 1:1 mixtures IC50 refers to known antiviral drugs
[2] = system: thymidine kinase-deficient (TK−) varicella-zoster virus (YS/R); test: microbe, parasite or virus in culture; type: cell-based; conditions: Vero cell culture; 50% inhibition of cytopathogenicity; for 1:1 mixtures IC50 refers to known antiviral drugs
[3] = system: human cytomegalovirus (AD-169); test: Inhibition of HCMV cytopathogenicity in Vero cell culture; type: cell-based; conditions: Vero cell culture; 50% inhibition of cytopathogenicity; for 1:1 mixtures IC50 refers to known antiviral drugs
[4] = system: thymidine kinase-positive (TK+) varicella-zoster virus (YS); test: Inhibition of TK+ VZV cytopathogenicity in Vero cell culture; type: cell-based; conditions: Vero cell culture; 50% inhibition of cytopathogenicity; for 1:1 mixtures IC50 refers to known antiviral drugs
[5] = system: herpes simplex type 1 virus (HSV-1) (KOS); test: Inhibition of HSV-1 cytopathogenicity in Vero cell culture; type: cell-based; conditions: Vero cell culture; 50% inhibition of virus-induced cytopathogenicity; mean of duplicates; for 1:1 (W/W) mixtures IC50 refers to known antiviral drugs

SMILES | Km (PRPP synthetase) [µM] | IC50 HSV-2 (G) [1] [µg/mL] | HeLa cell, concentration causing microscopically visible change or disruption in about 50% of the cell sheet (HeLa cells) [µg/mL] | IC50 TK−VZV (YS/R) [2] [µg/mL] | IC50 HCMV (AD-169) [3] [µg/mL] | IC50 TK+VZV (YS) [4] [µg/mL] | Vero cell, concentration causing microscopically visible change or disruption in about 50% of the cell sheet (Vero cells) [µg/mL] | IC50 HSV-1 (KOS) [5] [µg/mL]
Nc1ncnc2c1ncn2[C@@H]1O[C@H](COP(=O)(O)O)[C@@H](O)[C@H]1O [AMP 21, adenosine 5′-monophosphate, reference compound] | 240 |  |  |  |  |  |  | 
Nc1nc2ncn(COCCCl)c2c(=O)[nH]1 [Compound 7, 7-[(2-Chloroethoxy)methy]guanine] |  | >128 | 157 | >128 | >128 | >128 | 145 | >128
Nc1ncnc2ncn(COCCCl)c12 [Compound 12, 7-[(2-Chloroethoxy)methy]adenine] |  | >128 | 169 | >128 | >128 | >128 | 165 | >128
